PubChem BioAssay (NCI)
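How tested: cells in 96-well plates exposed to compound for 48 hours at five concentrations. TGI: total growth inhibition.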

Columns and labels:
Experiment in all cases: DTP human tumour cell line panel, 48 h
[1] = system: XF 498 CNS
[2] = system: DMS 114 small cell lung
[3] = system: M19-MEL melanoma
[4] = system: KM20L2 colon
[5] = system: DLD-1 colon
[6] = system: HOP-18 NSCLC
[7] = system: SNB-78 CNS
[8] = system: DMS 273 small cell lung

SMILES	TGI [1]	TGI [2]	TGI [3]	TGI [4]	TGI [5]	TGI [6]	TGI [7]	TGI [8]
Nc1nc2c3nc(Nc4ccccc4)sc3nc(=S)n2c2sc(Nc3ccccc3)nc12	4.25 µM	> 100 µM	> 100 µM	> 100 µM	> 100 µM	> 100 µM	> 100 µM	> 100 µM
COP(=O)(OC)C(=O)N1N(c2ccc([N+](=O)[O-])cc2)C(=O)C(C)NC1(NNc1ccc([N+](=O)[O-])cc1)P(=O)(OC)OC (centres undefined)	> 100 µM	> 100 µM	> 100 µM	> 100 µM	> 100 µM			> 100 µM
CCN(CC)C(=O)Cc1c(C(=O)N(CC)CC)c(=O)nc2sccn12	> 100 µM	> 100 µM	> 100 µM	> 100 µM	> 100 µM	> 100 µM		> 100 µM
O=C(c1ccccc1)c1c(CC(O)c2ccccn2)n(C(=O)c2ccccc2)c2ccccc12 (centres undefined)	46 µM	71.9 µM	40.1 µM	33.5 µM	> 100 µM			58.3 µM
CCN(CC)c1cccc2c1/C(=N/O)CCCC2	> 100 µM	> 100 µM	> 100 µM	> 100 µM		> 100 µM	> 100 µM	> 100 µM
